Assay results as given in US20020173538A1, “Method for sensitizing cancer cells to cancer therapies with a mevalonate-reducing compound” (priority 2000, published 2002).
Where two headings read alike, the source gives them in different places. Marks after values point to notes of the source that are not given here.

How the values were obtained:
Hep 3B cells [1] = assay: Cell cycle determination by flow cytometry, Hep 3B; assay type: cell-based, human; conditions: cell line not given
Hep 3B cells [2] = assay: MTT cell viability assay, Hep 3B cells (serum-free DMEM); conditions: for viability at 0.002 µM / viability at 0.005 µM / viability at 0.01 µM / viability at 0.02 µM / viability at 0.05 µM / viability at 0.1 µM / viability at 0.2 µM / viability at 0.5 µM / viability at 1 µM / IC50: Homo sapiens, Hep3B
Source text: Human hepatoma cell lines Hep G2 and Hep 3 were chosen as the in vitro models of hepatocytes and hepatoma, respectively.

[3] = no lovastatin 48 hr, then taxol 10 nM 48 hr
[4] = no lovastatin 72 hr, then taxol 2 nM 72 hr
[5] = no lovastatin 72 hr, then taxol 5 nM 48 hr
[6] = no lovastatin 72 hr, then taxol 5 nM 72 hr
[7] = no lovastatin 72 hr, then taxol 10 nM 72 hr

CC(=O)O[C@H]1C(=O)[C@@]2(C)[C@H]([C@H](OC(=O)c3ccccc3)[C@]3(O)C[C@H](OC(=O)[C@H](O)[C@@H](NC(=O)c4ccccc4)c4ccccc4)C(C)=C1C3(C)C)[C@]1(OC(C)=O)CO[C@@H]1C[C@@H]2O [Taxol, paclitaxel]
cell cycle arrest stage (Hep 3B cells [1]): G2/M arrest | viability at 0.002 µM (Hep 3B cells [2]; 48 h, read-out: Cell viability, taxol 2 nM, 48 hr): 93.1 ± 1.3% | viability at 0.002 µM (Hep 3B cells [2]; 48 h, read-out: Cell viability, taxol 2 nM, 48 hr, Table 9): 97 ± 1.5% | viability at 0.005 µM (Hep 3B cells [2]; 48 h, read-out: Cell viability, taxol 5 nM, 48 hr): 91.6 ± 0.5% | viability at 0.005 µM (Hep 3B cells [2]; 48 h, read-out: Cell viability, taxol 5 nM, 48 hr, Table 9): 97.5 ± 3.1% | viability at 0.01 µM (Hep 3B cells [2]; 48 h, read-out: Cell viability, taxol 10 nM, 48 hr): 87.1 ± 1.5% | viability at 0.01 µM (Hep 3B cells [2]; 48 h, read-out: Cell viability, taxol 10 nM, 48 hr, Table 9): 89.1 ± 3% | viability at 0.02 µM (Hep 3B cells [2]; 48 h, read-out: Cell viability, taxol 20 nM, 48 hr): 85.4 ± 0.9% | viability at 0.05 µM (Hep 3B cells [2]; 48 h, read-out: Cell viability, taxol 50 nM, 48 hr): 83.5 ± 0.9% | viability at 0.1 µM (Hep 3B cells [2]; 48 h, read-out: Cell viability, taxol 100 nM, 48 hr): 74.9 ± 1.8% | viability at 0.2 µM (Hep 3B cells [2]; 48 h, read-out: Cell viability, taxol 200 nM, 48 hr): 64.7 ± 4.6% | viability at 0.5 µM (Hep 3B cells [2]; 48 h, read-out: Cell viability, taxol 500 nM, 48 hr): 56.2 ± 0.8% | viability at 1 µM (Hep 3B cells [2]; 48 h, read-out: Cell viability, taxol 1000 nM, 48 hr): 55.3 ± 0.5% | IC50 (Hep 3B cells [2]; 48 h, read-out: IC50 (cell viability), 48 hr, Table 8): 1119 ± 10.1 nM | IC50 (Hep 3B cells [2]; 48 h, read-out: IC50 (cell viability), 48 hr, Table 9): 45.9 nM | viability at 0.002 µM (Hep 3B cells [2]; 72 h, read-out: Cell viability, taxol 2 nM, 72 hr): 94 ± 3.6% | viability at 0.002 µM (Hep 3B cells [2]; 72 h, read-out: Cell viability, taxol 2 nM, 72 hr, Table 9): 94 ± 3.6% | viability at 0.005 µM (Hep 3B cells [2]; 72 h, read-out: Cell viability, taxol 5 nM, 72 hr): 91.7 ± 3.7% | viability at 0.005 µM (Hep 3B cells [2]; 72 h, read-out: Cell viability, taxol 5 nM, 72 hr, Table 9): 91.7 ± 3.7% | viability at 0.01 µM (Hep 3B cells [2]; 72 h, read-out: Cell viability, taxol 10 nM, 72 hr): 88.5 ± 2.4% | viability at 0.01 µM (Hep 3B cells [2]; 72 h, read-out: Cell viability, taxol 10 nM, 72 hr, Table 9): 88.5 ± 2.4% | viability at 0.02 µM (Hep 3B cells [2]; 72 h, read-out: Cell viability, taxol 20 nM, 72 hr): 85.6 ± 1.1% | viability at 0.05 µM (Hep 3B cells [2]; 72 h, read-out: Cell viability, taxol 50 nM, 72 hr): 71.2 ± 4.2% | viability at 0.1 µM (Hep 3B cells [2]; 72 h, read-out: Cell viability, taxol 100 nM, 72 hr): 52.7 ± 2.8% | viability at 0.2 µM (Hep 3B cells [2]; 72 h, read-out: Cell viability, taxol 200 nM, 72 hr): 47 ± 1% | viability at 0.5 µM (Hep 3B cells [2]; 72 h, read-out: Cell viability, taxol 500 nM, 72 hr): 32.2 ± 4.7% | viability at 1 µM (Hep 3B cells [2]; 72 h, read-out: Cell viability, taxol 1000 nM, 72 hr): 24.6 ± 2.9% | IC50 (Hep 3B cells [2]; 72 h, read-out: IC50 (cell viability), 72 hr, Table 8): 147 ± 14.2 nM | IC50 (Hep 3B cells [2]; 72 h, read-out: IC50 (cell viability), 72 hr, Table 9): 43.5 nM | viability at 0.002 µM (Hep 3B cells [2]; 96 h, read-out: Cell viability, taxol 2 nM alone, 96 hr, Table 10): 92.6 ± 1.9% | viability at 0.002 µM (Hep 3B cells [2]; 96 h, read-out: Cell viability, taxol 2 nM, 96 hr): 94.1 ± 7.9% | viability at 0.005 µM (Hep 3B cells [2]; 96 h, read-out: Cell viability, taxol 5 nM alone, 96 hr, Table 10): 79.5 ± 4.6% | viability at 0.005 µM (Hep 3B cells [2]; 96 h, read-out: Cell viability, taxol 5 nM, 96 hr): 92.4 ± 4.8% | viability at 0.01 µM (Hep 3B cells [2]; 96 h, read-out: Cell viability, taxol 10 nM alone, 96 hr, Table 10): 60.3 ± 3.4% | viability at 0.01 µM (Hep 3B cells [2]; 96 h, read-out: Cell viability, taxol 10 nM, 96 hr): 82.3 ± 6.6% | IC50 (Hep 3B cells [2]; 96 h, read-out: IC50 (cell viability), 96 hr): 28.2 nM | viability at 0.002 µM (Hep 3B cells [2]; 120 h, read-out: Cell viability, taxol 2 nM, 120 hr): 94.2 ± 2.5% | viability at 0.005 µM (Hep 3B cells [2]; 120 h, read-out: Cell viability, taxol 5 nM, 120 hr): 82.7 ± 3.7% | viability at 0.01 µM (Hep 3B cells [2]; 120 h, read-out: Cell viability, taxol 10 nM, 120 hr): 71.9 ± 4.6% | IC50 (Hep 3B cells [2]; 120 h, read-out: IC50 (cell viability), 120 hr): 17.8 nM | Cell viability (Hep 3B cells [2]; no lovastatin 48 hr, then taxol 2 nM 48 hr): 102.4 ± 4.7^a % of control | Ratio, inhibition (%) Hep 3B/inhibition (%) Hep G2 (Hep 3B cells [2]; no lovastatin 48 hr, then taxol 5 nM 48 hr): 0.3*** | Cell viability (Hep 3B cells [2]; [3]): 76.3 ± 1.3^c % of control | Ratio, inhibition (%) Hep 3B/inhibition (%) Hep G2 (Hep 3B cells [2]; [3]): 0.6*** | Ratio, inhibition (%) Hep 3B/inhibition (%) Hep G2 (Hep 3B cells [2]; no lovastatin 72 hr, then taxol 2 nM 48 hr): 0.4*** | Cell viability (Hep 3B cells [2]; [4]): 91.1 ± 1.1^b % of control | Ratio, inhibition (%) Hep 3B/inhibition (%) Hep G2 (Hep 3B cells [2]; [4]): 0.4* | Cell viability (Hep 3B cells [2]; [5]): 86.9 ± 1.3^b % of control | Ratio, inhibition (%) Hep 3B/inhibition (%) Hep G2 (Hep 3B cells [2]; [5]): 0.4*** | Cell viability (Hep 3B cells [2]; [6]): 96.5 ± 0.6^a % of control | Ratio, inhibition (%) Hep 3B/inhibition (%) Hep G2 (Hep 3B cells [2]; [6]): 0.1*** | Ratio, inhibition (%) Hep 3B/inhibition (%) Hep G2 (Hep 3B cells [2]; no lovastatin 72 hr, then taxol 10 nM 48 hr): 0.4** | Cell viability (Hep 3B cells [2]; [7]): 78.0 ± 0.4^c % of control | Ratio, inhibition (%) Hep 3B/inhibition (%) Hep G2 (Hep 3B cells [2]; [7]): 0.6** | Ratio, inhibition (%) Hep 3B/inhibition (%) Hep G2 (Hep 3B cells [2]; taxol 2 nM alone, 96 hr, Table 10): 0.3** | Ratio, inhibition (%) Hep 3B/inhibition (%) Hep G2 (Hep 3B cells [2]; taxol 2 nM, 48 hr): 1.3* | Ratio, inhibition (%) Hep 3B/inhibition (%) Hep G2 (Hep 3B cells [2]; taxol 2 nM, 72 hr): 0.6* | Ratio, inhibition (%) Hep 3B/inhibition (%) Hep G2 (Hep 3B cells [2]; taxol 5 nM alone, 96 hr, Table 10): 0.4** | Ratio, inhibition (%) Hep 3B/inhibition (%) Hep G2 (Hep 3B cells [2]; taxol 5 nM, 48 hr): 0.3** | Ratio, inhibition (%) Hep 3B/inhibition (%) Hep G2 (Hep 3B cells [2]; taxol 5 nM, 72 hr): 0.2** | Ratio, inhibition (%) Hep 3B/inhibition (%) Hep G2 (Hep 3B cells [2]; taxol 10 nM alone, 96 hr, Table 10): 0.5*** | Ratio, inhibition (%) Hep 3B/inhibition (%) Hep G2 (Hep 3B cells [2]; taxol 10 nM, 48 hr): 0.4*** | Ratio, inhibition (%) Hep 3B/inhibition (%) Hep G2 (Hep 3B cells [2]; taxol 10 nM, 72 hr): 0.2*** | Ratio, inhibition (%) Hep 3B/inhibition (%) Hep G2 (Hep 3B cells [2]; taxol 20 nM, 48 hr): 0.3*** | Ratio, inhibition (%) Hep 3B/inhibition (%) Hep G2 (Hep 3B cells [2]; taxol 20 nM, 72 hr): 0.2*** | Ratio, inhibition (%) Hep 3B/inhibition (%) Hep G2 (Hep 3B cells [2]; taxol 50 nM, 48 hr): 0.3*** | Ratio, inhibition (%) Hep 3B/inhibition (%) Hep G2 (Hep 3B cells [2]; taxol 50 nM, 72 hr): 0.4*** | Ratio, inhibition (%) Hep 3B/inhibition (%) Hep G2 (Hep 3B cells [2]; taxol 100 nM, 48 hr): 0.4** | Ratio, inhibition (%) Hep 3B/inhibition (%) Hep G2 (Hep 3B cells [2]; taxol 100 nM, 72 hr): 0.6** | Ratio, inhibition (%) Hep 3B/inhibition (%) Hep G2 (Hep 3B cells [2]; taxol 200 nM, 48 hr): 0.5** | Ratio, inhibition (%) Hep 3B/inhibition (%) Hep G2 (Hep 3B cells [2]; taxol 200 nM, 72 hr): 0.6**
